The source of these data is US20220143194A1, “SELENIUM ANTIBODY CONJUGATES” (priority 2020, published 2022).

For orientation: IC50 means the concentration needed to halve the response being measured.

Non-standard residues stand in square brackets, D forms with d. Residues, ends and D or L forms follow the SMILES beside them. *: point of attachment. Dolaproine = CO[C@@H]([C@@H]1CCCN1)[C@@H](C)C(=O)O; Dil = CC[C@H](C)[C@H](NC)[C@@H](CC(=O)O)OC; X1 = C[C@@H](N*)[C@@H](O)c1ccccc1; NMeV = CN[C@H](C(=O)O)C(C)C

The test system of assay [1] is SKBR3 (Her2+) cells. As to the kind of experiment: In vitro cytotoxicity assay (CCK8 cell viability), SKBR3 (Her2+) cells. In kind it is cell-based. As to the method:
(§1) The ability of various antibody-drug conjugates and naked payloads to kill antigen-expressing tumor cells in vitro was assessed.
(§2) SKBR3 (Her2+) cells were seeded in 96 well plates at 8000 cells per well in complete growth media and grown overnight. For cell viability curves, serially diluted conjugates or naked payloads were added to the cells at final concentrations ranging from 100 nM to 5 pM and incubated for 3 days. NCI H1975 (Her2−) cells were run as negative controls using similar conditions. To measure viability, cells were incubated with CCK8 (Dojindo) for the final 2 hours and the absorbance at 450 nm (OD450) was determined on a Victor (Perkin Elmer). Background OD450 levels determined from digitonin (40 nM) treated cells were subtracted from all wells and viability is expressed as a percentage of the untreated controls. IC50 values were determined from a four-parameter logistic equation over a 10-point response curve (GraphPad Prism). […] The interchain disulfide conjugates had similar IC50 values as the transglutaminase site-specific selenocystamine conjugates. […] For comparison, the mc-vc-PAB-MMAE interchain disulfide conjugated molecules were produced according to Doronina, S. O. et al., Nat. Biotechnol., 2003, 21, 778.

Assay [2] relates to NCI H1975 (Her2−) cells. As to the kind of experiment: In vitro cytotoxicity assay (CCK8 cell viability), NCI H1975 (Her2−) negative control cells. The following applies: 3 days incubation. In kind it is cell-based. Here is the method: as §1, §2

As to `CC[C@H](C)[C@@H]([C@@H](CC(=O)N1CCC[C@H]1[C@H](OC)[C@@H](C)C(=O)N[C@H](C)[C@@H](O)c1ccccc1)OC)N(C)C(=O)[C@@H](NC(=O)[C@@H](NC)C(C)C)C(C)C` [MMAE, monomethyl auristatin E] (H-[NMeV]V[Dil][Dolaproine]-X1), the concentration for half-maximal inhibition (IC50) in assay [1] (Homo sapiens, SK-BR-3, 72 h) came out at 0.191 nM; in assay [2] (Homo sapiens, 72 h, IC50 corrected for payload equivalents) it was 0.405 nM. Further, the “% Kill” value in assay [1] (SK-BR-3 cells, 3 days incubation, CCK8 viability, concentrations 100 nM to 5 pM) was determined as 93.6%; in assay [2] (concentrations 100 nM to 5 pM) it was 100%.
